Test results taken from PMC6018746, “Activation of the p53-MDM4 regulatory axis defines the anti-tumour response to PRMT5 inhibition through its role in regulating cellular splicing” (Scientific Reports, 2018).

Key:
[1] = tested on: MDM4 alternative splicing in Z-138 cells; experiment: MDM4 splicing RT-PCR; format: cell-based, human; settings: 3-day exposure, 1.6 nM to 1 μM tested
Description: We confirmed PRMT5 inhibitor-induced alternative splicing of MDM4 from the full-length isoform (MDM4-FL) to the short isoform (MDM4-S) at both treatment concentrations, with the most robust changes after 3 days of compound exposure.
RNA was isolated from cell pellets as described above and was converted to cDNA using ABI High Capacity Reverse Transcription Reagents (4274966) per manufacturer’s instructions and PCR was performed as described elsewhere. Reaction products were separated using agarose ethidium bromide gel electrophoresis and visualized using a Bio-Rad VersaDoc Model 5000 imaging system.

[2] = body weight of Z-138 tumour bearing mice; format: in vivo, mouse; settings: any of the treatment groups
Excerpt: Supplementary Figure S7. […] Z-138 tumour
Treatments were reinstated on day 32 for 2 weeks followed by a one week holiday.

SMILES | concentration at which MDM4 alternative splicing was evident [1] | body weight [2]
O=C(NC[C@H](O)CN1CCc2ccccc2C1)c1ccnc(NC2CCC2)c1 [GSK3203591] | ≥ 8 nM | –
CC(=O)N1CCC(Nc2cc(C(=O)NC[C@H](O)CN3CCc4ccccc4C3)ncn2)CC1 [GSK3326595] | – | No significant body weight losses
